From patent US6518278B1, “Carcinostatic substance for compatible administration, process of administrating same and process of rapidly inspecting same” (Debio Pharm S.A., priority 1994, dated 2003)
Several values for one entry are separate records, joined by “and”; a condition that tells them apart may be missing. Identical values can stand only once. Entries after “also recorded” stand apart in the source; their conditions may differ.

Test system: human leutecyte strain cell (RPMI-8402)
Experiment: Extinction effect of compatible administration of l-OHP and a compatible agent on tumor cells (compatible efficiency OE)
Assay type: cell-based
Conditions: for Compatible Effects of l-OHP and Compatible Agent, Simultaneous Administration: both added day 1
Experimental: In the evaluation of the extinction effect of the tumor cells of the respective combinations, a pure extinction effect produced by the compatible administration of the compatible agent and the l-OHP is calculated by subtracting an extinction effect of a control (no carcinostatic substance is employed).
The compatibly administration effect is calculated by employing an Equation (1) described later. When the value (%) calculated by this Equation is between 85 and 115%, the compatible administration effect is evaluated to be an additive effect. When the value is below 85%, it is evaluated to be below the additive effect. When the value is over 115%, it is evaluated to be a synergistic effect, ±15% is a reliability limit or a measurement error.
A target tumor cell was a human leutecyte strain cell (RPMI-8402 of Gibuko K.K.). To these cells was added blood serum of a cow embryo (15%, Gibuko K.K.) to prepare a cell floating liquid of which the number of the cells was 10^6/ml in a cultivation bottle (tradename; Sumiron of Sumitomo Bakelite o., Ltd.) having a volume of 6 ml. A plenty of the cultivation bottles having the cell floating liquid therein were prepared, and the following experiments were conducted while selecting one kind of a compatible agent among cisplatin, 5-FU, irinotecane, adriamycin, etoposide, mitomycin, mitoxantrone, bleomycin, vincristin and vindecin. The time schedules of the controls (no addition of medicines, addition of only the l-OHP and addition of only a compatible agent, and specified in the below items (1) to (4)) and of the compatible administration of the compatible agent and the l-OHP are shown in FIG. 10.
(1) No medicine was added (control).
(2) Only the l-OHP was added at a second day.
(3) A large amount of compatible agents were added at a first day ([…] of the cisplatin, 10 μg/ml of the 5-FU, 0.05 μg/ml of the adriamycin and 1 μg/ml of the etoposide, and for the comparison purpose, 0.05 μg/ml of the vincristin and 0.06 μg/ml of the vindecin). The adding amount of the irinotecano was fixed to 10 μg/ml, and the addition amount of the l-OHP was 5 μg/ml.
(4) A small amount of compatible agents were added at a first day (0.5 μg/ml of the cisplatin, 5 μg/ml of the 5-FU, 0.01 μg/ml of the adriamycin and 0.5 μg/ml of the etoposide, and for the comparison purpose, 0.01 μg/ml of the vincristin and 0.01 μg/ml of the vindecin). The adding amount of the irinotecane was fixed to 10 μg/ml, and the addition amount of the l-OHP was 1 μg/ml.
(5) The l-OHP and a large amount (the same as that of the above item (3) and so forth in the following items) of the compatible agents were simultaneously added at a first day.
(6) The l-OHP and a small amount (the same as that of the above item (4) and so forth in the following items) of the compatible agents were simultaneously added at a first day.
(7) The l-OHP was added at a first day and a large amount of the compatible agents were added at a second day.
(8) The l-OHP was added at a first day and a small amount of the compatible agents were added at a second day.
(9) The l-OHP was added at a first day and a large amount of the compatible agents were added at a third day.
(10) The l-OHP was added at a first day and a small amount of the compatible agents were added at a third day.
(11) The l-OHP was added at a first day and a large amount of the compatible agents were added at a fourth day.
(12) The l-OHP was added at a first day and a small amount of the compatible agents were added at a fourth day.
(13) A large amount of the compatible agents were added at a first day and the l-OHP was added at a second day.
(14) A small amount of the compatible agents were added at a first day and the l-OHP was added at a second day.
(15) A large amount of the compatible agents were added at a first day and the l-OHP was added at a third day.
(16) A small amount of the compatible agents were added at a first day and the l-OHP was added at a third day.

[1] = larger dosage of compatible agent (μg/ml: cisplatin 1, 5-FU 10, irinotecane 10, adriamycin 0.05, vincristin 0.05, vindecin 0.05, etoposide 1, bleomycin 10, mitoxantrone 0.1, mitomycine 1), l-OHP 1 μg/ml (5 μg/ml with irinotecane) added day 1
[2] = larger dosage of compatible agent (μg/ml: cisplatin 1, 5-FU 10, irinotecane 10, adriamycin 0.05, vincristin 0.05, vindecin 0.05, etoposide 1, bleomycin 10, mitoxantrone 0.1, mitomycine 1), l-OHP 1 μg/ml (5 μg/ml with irinotecane)
[3] = larger dosage of compatible agent added day 1 (μg/ml: cisplatin 1, 5-FU 10, irinotecane 10, adriamycin 0.05, vincristin 0.05, vindecin 0.05, etoposide 1, bleomycin 10, mitoxantrone 0.1, mitomycine 1), l-OHP 1 μg/ml (5 μg/ml with irinotecane)
[4] = smaller dosage of compatible agent (μg/ml: cisplatin 0.5, 5-FU 5, irinotecane 10, adriamycin 0.01, vincristin 0.01, vindecin 0.01, etoposide 0.5, bleomycin 1, mitoxantrone 0.05, mitomycine 0.5), l-OHP 1 μg/ml added day 1
[5] = smaller dosage of compatible agent (μg/ml: cisplatin 0.5, 5-FU 5, irinotecane 10, adriamycin 0.01, vincristin 0.01, vindecin 0.01, etoposide 0.5, bleomycin 1, mitoxantrone 0.05, mitomycine 0.5), l-OHP 1 μg/ml
[6] = smaller dosage of compatible agent added day 1 (μg/ml: cisplatin 0.5, 5-FU 5, irinotecane 10, adriamycin 0.01, vincristin 0.01, vindecin 0.01, etoposide 0.5, bleomycin 1, mitoxantrone 0.05, mitomycine 0.5), l-OHP 1 μg/ml

Row | Compound | compatible administration effect with l-OHP, summary in words | Compatible Effects of l-OHP and Compatible Agent, Time Lag Administration, Addition Administration of Compatible Agent day 2 [1] | Compatible Effects of l-OHP and Compatible Agent, Time Lag Administration, Addition Administration of Compatible Agent day 3 [1] | Compatible Effects of l-OHP and Compatible Agent, Time Lag Administration, Addition Administration of Compatible Agent day 4 [1] | Compatible Effects of l-OHP and Compatible Agent, Simultaneous Administration [2] | Compatible Effects of l-OHP and Compatible Agent, Time Lag Administration, Addition Administration of l-OHP day 2 [3] | Compatible Effects of l-OHP and Compatible Agent, Time Lag Administration, Addition Administration of l-OHP day 3 [3] | Compatible Effects of l-OHP and Compatible Agent, Time Lag Administration, Addition Administration of l-OHP day 4 [3] | Compatible Effects of l-OHP and Compatible Agent, Time Lag Administration, Addition Administration of Compatible Agent day 2 [4] | Compatible Effects of l-OHP and Compatible Agent, Time Lag Administration, Addition Administration of Compatible Agent day 3 [4] | Compatible Effects of l-OHP and Compatible Agent, Time Lag Administration, Addition Administration of Compatible Agent day 4 [4] | Compatible Effects of l-OHP and Compatible Agent, Simultaneous Administration [5] | Compatible Effects of l-OHP and Compatible Agent, Time Lag Administration, Addition Administration of l-OHP day 2 [6] | Compatible Effects of l-OHP and Compatible Agent, Time Lag Administration, Addition Administration of l-OHP day 3 [6] | Compatible Effects of l-OHP and Compatible Agent, Time Lag Administration, Addition Administration of l-OHP day 4 [6] | compatible administration effect with l-OHP, summary in words (listed as 6-FU) | effect as % of the expected value (compatible efficiency) (simultaneous administration with l-OHP, which dosage gives which value is not given)
1 | CCc1c2c(nc3ccc(OC(=O)N4CCC(N5CCCCC5)CC4)cc13)-c1cc3c(c(=O)n1C2)COC(=O)[C@]3(O)CC [irinotecane] | the additive effect or the synergistic effect regardless of the administration method and the dosage in almost all the cases; also recorded: synergistic effects can be obtained in all the combinations when the l-OHP is added later | ◯ (◯: Additive Effect) | ◯ (◯: Additive Effect) | Δ (Δ: Below Additive Effect) | ◯ (◯: Additive Effect) | ◯ (◯: Additive Effect) | • (•: Synergistic Effect) | • (•: Synergistic Effect) | ◯ (◯: Additive Effect) | ◯ (◯: Additive Effect) | ◯ (◯: Additive Effect) | ◯ (◯: Additive Effect) | • (•: Synergistic Effect) | • (•: Synergistic Effect) | • (•: Synergistic Effect) | – | –
2 | bleomycin | the additive effect or the synergistic effect regardless of the administration method and the dosage in almost all the cases; also recorded: synergistic effects can be obtained in most combinations when the l-OHP is added later at a third day and a fourth day | Δ (Δ: Below Additive Effect) | ◯ (◯: Additive Effect) | • (•: Synergistic Effect) | Δ (Δ: Below Additive Effect) | Δ (Δ: Below Additive Effect) | • (•: Synergistic Effect) | • (•: Synergistic Effect) | Δ (Δ: Below Additive Effect) | • (•: Synergistic Effect) | Δ (Δ: Below Additive Effect) | • (•: Synergistic Effect) | ◯ (◯: Additive Effect) | • (•: Synergistic Effect) | ◯ (◯: Additive Effect) | – | –
3 | O=c1[nH]cc(F)c(=O)[nH]1 [5-FU, 5-fluorouracil] | twice an expected value; also recorded: synergistic effects can be obtained in almost all the administration conditions | • (•: Synergistic Effect) | • (•: Synergistic Effect) | • (•: Synergistic Effect) | • (•: Synergistic Effect) | • (•: Synergistic Effect) | • (•: Synergistic Effect) | • (•: Synergistic Effect) | ◯ (◯: Additive Effect) | • (•: Synergistic Effect) | • (•: Synergistic Effect) | • (•: Synergistic Effect) | • (•: Synergistic Effect) | ◯ (◯: Additive Effect) | • (•: Synergistic Effect) | the additive effect or the synergistic effect regardless of the administration method and the dosage in almost all the cases | 180% and 150%
4 | O=C1c2c(O)ccc(O)c2C(=O)c2c(NCCNCCO)ccc(NCCNCCO)c21 [mitoxantrone] | the additive effect or the synergistic effect regardless of the administration method and the dosage in almost all the cases; also recorded: synergistic effects can be obtained in all the combinations when a small amount of the mitoxantrone is employed and the l-OHP is added later | • (•: Synergistic Effect) | ◯ (◯: Additive Effect) | Δ (Δ: Below Additive Effect) | ◯ (◯: Additive Effect) | ◯ (◯: Additive Effect) | ◯ (◯: Additive Effect) | ◯ (◯: Additive Effect) | ◯ (◯: Additive Effect) | • (•: Synergistic Effect) | Δ (Δ: Below Additive Effect) | • (•: Synergistic Effect) | • (•: Synergistic Effect) | • (•: Synergistic Effect) | • (•: Synergistic Effect) | – | –
